Data published in US8557797B2, “Triazolopyridine derivatives and their therapeutic use” (Chiesi Farmaceutici S.p.A., priority 2009, dated 2013).

What was measured:
[1] = system: TNFα release from LPS activated THP-1 cells or PBMC's; assay: p38 Functional Assay (TNFα release after LPS); assay type: cell-based; conditions: Homo sapiens, 1 h pre-treatment, 0.3% DMSO, read-out: EC50 (inhibition of TNFα release)
Experimental: Inhibition of cellular p38 depresses the release of TNFα, a functional response which is quantified by measurement of the amount of TNFα in the supernatants of LPS activated THP-1 cells (an immortalised monocytic cell line) or peripheral blood mononuclear cells (PBMC's) isolated from freshly drawn human blood.
Cells seeded in 96 well plates are pre-treated by the addition of p38 inhibitors for 1 h followed by addition of lipopolysaccharide (LPS) to activate cytokine production and release. The amount of TNFα released into the cell supernatants is quantified using an R&D Systems enzyme linked immunosorbant assay (ELISA) kit (product DY210) following the manufacturers instructions.
Compounds are diluted in DMSO prior to addition, the final DMSO concentration in the assay being 0.3%. The EC50 is defined as the concentration at which a given compound achieves 50% inhibition of the control.

[2] = biological target: T1, p38α (Homo sapiens, UniProt Q16539); assay: p38 Kinase Assay (ATF-2 phosphorylation ELISA); assay type: biochemical; conditions: 2 h pre-incubation, ATP 250 μM, 1% DMSO; read-out: p38α inhibition (IC50 values)
T1 construct: purchased Calbiochem 559324; host or cells: E. coli
T1 sequence (Q16539 whole entry): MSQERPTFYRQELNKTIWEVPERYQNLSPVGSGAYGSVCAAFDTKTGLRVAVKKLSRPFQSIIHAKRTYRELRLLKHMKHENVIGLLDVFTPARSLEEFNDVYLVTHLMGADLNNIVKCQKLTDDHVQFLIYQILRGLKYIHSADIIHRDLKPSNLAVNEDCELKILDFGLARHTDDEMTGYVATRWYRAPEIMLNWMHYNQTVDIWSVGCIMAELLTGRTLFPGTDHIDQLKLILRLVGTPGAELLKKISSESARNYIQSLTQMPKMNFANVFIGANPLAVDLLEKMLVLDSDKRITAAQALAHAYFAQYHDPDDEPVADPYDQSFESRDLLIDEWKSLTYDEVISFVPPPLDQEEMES
Experimental: Human recombinant p38 enzyme expressed in E. coli and activated by incubation with MKK6 enzyme (Calbiochem #559324) is used as source of enzyme activity.
The assay is carried in high binding, clear, flat bottom 96 well assay plates which have been coated with recombinant ATF-2 (Biosource #PHF0043). Test compounds are incubated with p38 kinase for 2 h prior to initiating the kinase assay by the addition of ATP to obtain an assay concentration of 250 μM. Phosphorylation of ATF-2 is detected and quantified using an ELISA. This consists of sequential incubation in the presence of anti-phospho-ATF2, biotinylated anti-IgG and streptavidin-HRP. Incubation with an HRP chromogenic substrate (TMB) results in absorbance that is proportional to the amount of phosphorylated substrate produced. Absorbance is detected using a multiwell plate reader.
Compounds are diluted in DMSO prior to addition to assay buffer, the final DMSO concentration in the assay being 1%.
The IC50 is defined as the concentration at which a given compound achieves 50% inhibition of control.

Structure (SMILES) | IC50 [2] [nM] | EC50 [1] [nM]
O=C(NCC1CC1)c1cccc(Sc2ccc3nnc(-c4cccc(OCCN5CCOCC5)c4)n3c2)c1 [Example 1, N-Cyclopropylmethyl-3-{3-[3-(2-morpholin-4-yl-ethoxy)-phenyl]-[1,2,4]triazolo[4,3-a]pyridin-6-ylsulfanyl}-benzamide] | 500 to 2000 | 500 to 7000
O=C(Nc1cccc(N2CCOCC2)c1)c1cccc(Sc2ccc3nnc(-c4cccc(OCCN5CCOCC5)c4)n3c2)c1 [Example 2] | 100 to 500 | 100 to 500
O=C(Nc1ccnc(N2CCOCC2)c1)c1cccc(Sc2ccc3nnc(-c4cccc(OCCN5CCOCC5)c4)n3c2)c1 [Example 3] | 100 to 500 | 10 to 100
Cc1ccc(-n2nc(C(C)(C)C)cc2NC(=O)Nc2ccc(Sc3ccc4nnc(-c5cccc(OCCN6CCOCC6)c5)n4c3)nc2)cc1 [Example 12, 1-(5-tert-Butyl-2-p-tolyl-2H-pyrazol-3-yl)-3-(6-{3-[3-(2-morpholin-4-yl-ethoxy)-phenyl]-[1,2,4]triazolo[4,3-a]pyridin-6-ylsulfanyl}-pyridin-3-yl)-urea] | 10 to 100 | 10 to 100
Cc1ccc(-n2nc(C(C)(C)C)cc2NC(=O)N[C@H]2CC[C@H](Oc3ccc4nnc(-c5cccc(OCCN6CCOCC6)c5)n4c3)CC2)cc1 [Example 14, 1-(5-tert-Butyl-2-p-tolyl-2H-pyrazol-3-yl)-3-(trans-4-{3-[3-(2-morpholin-4-yl-ethoxy)-phenyl]-[1,2,4]triazolo[4,3-a]pyridin-6-yloxy}-cyclohexyl)-urea] | 10 to 100 | 10 to 100
Cc1ccc(-n2nc(C(C)(C)C)cc2NC(=O)C(C)c2ccc(Sc3ccc4nnc(C(C)C)n4c3)cc2)cc1 (centres unmarked) [Example 24, N-(5-tert-Butyl-2-p-tolyl-2H-pyrazol-3-yl)-2-[4-(3-isopropyl-[1,2,4]triazolo[4,3-a]pyridin-6-ylsulfanyl)-phenyl]-propionamide] | 100 to 500 | 
Cc1ccc(-n2nc(C(C)(C)C)cc2NC(=O)N[C@H]2CC[C@H](Oc3ccc4nnc(C5CCCC5)n4c3)CC2)cc1 [Example 25, 1-(5-tert-Butyl-2-p-tolyl-2H-pyrazol-3-yl)-3-[4-(3-cyclopentyl-[1,2,4]triazolo[4,3-a]pyridin-6-yloxy)-cyclohexyl]-urea] | < 10 | 
Cc1ccc(-n2nc(C(C)(C)C)cc2NC(=O)c2cccc(Sc3ccc4nnc(C(C)C)n4c3)c2)cc1 [Example 28] | 10 to 100 | 
Cc1ccc(-n2nc(C(C)(C)C)cc2NC(=O)NC2CCC(Oc3ccc4nnc(-c5ccccn5)n4c3)CC2)cc1 (centres unmarked) [Example 29, 1-(5-tert-Butyl-2-p-tolyl-2H-pyrazol-3-yl)-3-[4-(3-pyridin-2-yl-[1,2,4]triazolo[4,3-a]pyridin-6-yloxy)-cyclohexyl]-urea] | 10 to 100 | 

More lines, main results first:

IC50 [2] [nM] | Structure (SMILES) | EC50 [1] [nM]
< 10 | Cc1ccc(-n2nc(C(C)(C)C)cc2NC(=O)Cc2ccc(Sc3ccc4nnc(C(C)C)n4c3)cc2)cc1 [Example 6] | 10 to 100
10 to 100 | Cc1ccc(-n2nc(C(C)(C)C)cc2NC(=O)Cc2ccc(Sc3ccc4nnc(-c5cccc(OCc6ccccc6)c5)n4c3)cc2)cc1 [Example 8] | 100 to 500
500 to 2000 | Cc1ccc(-n2nc(C(C)(C)C)cc2NC(=O)Nc2ccc(Sc3ccc4nnc(-c5cccc(OCc6ccccc6)c5)n4c3)cc2)cc1 [Example 11] | 100 to 500
100 to 500 | Cc1ccc(-n2nc(C(C)(C)C)cc2NC(=O)Nc2ccc(Sc3ccc4nnc(-c5cccc(OCCN6CCOCC6)c5)n4c3)cn2)cc1 [Example 13, 1-(5-tert-Butyl-2-p-tolyl-2H-pyrazol-3-yl)-3-(5-{3-[3-(2-morpholin-4-yl-ethoxy)-phenyl]-[1,2,4]triazolo[4,3-a]pyridin-6-ylsulfanyl}-pyridin-2-yl)-urea] | 10 to 100
10 to 100 | CC(C)c1nnc2ccc(Sc3ccc(CC(=O)Nc4cc(C(C)(C)C)nn4-c4cccc(OCCc5ccncc5)c4)cc3)cn12 [Example 27, N-{5-tert-Butyl-2-[3-(2-pyridin-4-yl-ethoxy)-phenyl]-2H-pyrazol-3-yl}-2-[4-(3-isopropyl-[1,2,4]triazolo[4,3-a]pyridin-6-ylsulfanyl)-phenyl]-acetamide] | 
